Experimental data: patent publication US9061984B2 (University of Louisville Research Foundation, Inc., priority 2008, dated 2015)
Converted amounts (≈) assume the structure as drawn. Read-outs that look alike come from different tables or passages of the source.

Legend:
[1] = system: Trypanosoma cruzi (Tulahuen C4); experiment: In vitro anti-T. cruzi activity (β-galactosidase CPRG colorimetric assay in VERO monolayer); type: cell-based; conditions: Trypanosoma cruzi, TULAHUEN, Vero; for inhibition at 10 µg/mL: 120 h, 10 μg/mL of each compound, 120 hours, read-out: T. cruzi Inhib. (%)
[2] = Cytotoxicity on VERO cells (MTT), anti-T. cruzi study; conditions: African green monkey
[3] = system: VERO cells; experiment: as above; conditions: for IC50: Chlorocebus sabaeus, Vero
[4] = system: peritoneal macrophages; experiment: Toxicity to peritoneal macrophages (Trypan Blue count); type: cell-based, BALB/C mouse
Protocol: Peritoneal macrophages were prepared as follows. Non-inflammatory macrophages (10^6) were collected from each BALB/C mouse. The cells adhered at 37° C. after 2 h under 5% CO2 in a CO2 incubator. The plates were then rinsed two to three times with 0.5 mL of RPMI+buffer MOPS without fetal calf serum to eliminate non-adhering cells. The supernatant on the plates was replaced by fresh medium (RPMI+glutamine+FCS+antibiotics), 0.5 mL of medium per well. To determine the toxicity of the compounds to macrophages, dilutions of compounds were added on a part of the macrophages prepared above. […] The medium was then removed and 1 μL of sterile Trypan Blue was added. Cover glasses N° 1 were left where cells were plated and then the number of macrophages in a microscope was determined with a haemocytometer. All experiments were performed in triplicate.

[5] = system: axenic amastigotes of L. amazonensis (strain MHOM/BR/76/LTB-012); experiment: microbe, parasite or virus in culture; conditions: Leishmania amazonensis, 72 h, read-out: IC50 L. amazonensis
[6] = system: H460 cells; experiment: Cell growth inhibition bioassay (sulforhodamine B); type: cell-based, human; conditions: 48 h, SRB
Protocol: (§1) The cytotoxicity of compounds was assayed as follows. […] Appropriate solvent controls were tested for comparison. The percent inhibition of cell growth relative to the control was evaluated colorimetrically using a sulforhodamine B dye by comparison to the control. The calorimetric procedure followed that published in Skehan et al., J. Nat. Cancer Inst., […], pp. 1107-1112 (1990) and Boyd & Paull, Drug Dev. Res., Vol. 34, pp. 91-109 (1995). […] The cell lines are: 3T3 cells are BALB/3T3 clone A31 embryonic mouse fibroblast cells; H460 cells are human large cell lung cancer cells; DU145 cells are human prostate carcinoma cells; MCF-7 cells are human breast adenocarcinoma cells; M-14 cells are human melanoma cells; HT-29 cells are human colon adenocarcinoma cells; PC3 cells are human prostate adenocarcinoma cells; K562 cells are human chronic myelogenous leukemia cells; and VERO cells are African Green Monkey kidney epithelial cells.

[7] = system: M-14 cells; experiment: Cell growth inhibition bioassay (sulforhodamine B); type: cell-based, human; conditions: 48 h, SRB
Protocol: as §1

[8] = system: DU145 cells; experiment: Cell growth inhibition bioassay (sulforhodamine B); type: cell-based, human; conditions: 48 h, SRB
Protocol: as §1

[9] = system: MCF-7 cells; experiment: Cell growth inhibition bioassay (sulforhodamine B); type: cell-based, human; conditions: 48 h, SRB
Protocol: as §1

[10] = system: HT-29 cells; experiment: Cell growth inhibition bioassay (sulforhodamine B); type: cell-based, human; conditions: 48 h, SRB
Protocol: as §1

[11] = system: K562 cells; experiment: Cell growth inhibition bioassay (sulforhodamine B); type: cell-based, human; conditions: 48 h, SRB
Protocol: as §1

[12] = system: VERO cells; experiment: Cell growth inhibition bioassay (sulforhodamine B); type: cell-based, African Green Monkey; conditions: 48 h, SRB
Protocol: as §1

[13] = system: M. tuberculosis H37Rv; experiment: Conventional aerobic (MABA) culture assay, luminescence MIC; type: cell-based, Mycobacterium tuberculosis; conditions: aerobic, 7 days, H37Rv
[14] = system: 3T3 cells; experiment: Cell growth inhibition bioassay (sulforhodamine B); type: cell-based, mouse; conditions: 48 h, SRB
Protocol: as §1

[15] = system: axenic amastigotes of L. amazonensis (strain MHOM/BR/76/LTB-012); conditions: read-out: L. amazonensis IC50; Table 8b
[16] = Table 2, read-out: IC50 - T. cruzi
[17] = Table 3, read-out: IC50 T. cruzi
[18] = VERO cells, IC50 - VERO Cytotoxicity, Table 2
[19] = Mus musculus, Peritoneal macrophage, 48 h, Table 7, read-out: IC50 Macrophage

Row | Structure (SMILES) | inhibition at 10 µg/mL [1] [%] | IC50 [1, 16] [µg/mL] | IC50 [1, 17] [µM] | IC50 [2, 18] [µg/mL] | IC50 [4, 19] [µM] | IC50 [5] [µM] | IC50 ([3]; read-out: IC50 VERO, Table 3) [µM] | further results
1 | C=CCOc1cc(OC)c(C(=O)/C=C/c2ccccc2)c(OCC=C)c1 [Compound I-08, (2E)-1-[2-Methoxy-4,6-bis(2-propenyloxy)phenyl]-3-(phenyl)-2-propen-1-one] | 71.5 | 6.7 | 17.1 | 6 (≈ 17.1 µM) | 14.8 | 9.4 |  | IC50 ([3]; read-out: IC50 VERO): 17.1 µM
2 | C=CCOc1cc(OC)c(C(=O)/C=C/c2cccc(OC)c2)c(OCC=C)c1 [Compound I-11, (2E)-1-[2-Methoxy-4,6-bis(2-propenyloxy)phenyl]-3-(3-methoxyphenyl)-2-propen-1-one] | 72.4 | 5.37 | 14.2 | 54 (≈ 142 µM) | 13.1 | 8.7 | 142 | 
3 | C=CCOc1cc(OC)c(C(=O)/C=C/c2ccc(C(F)(F)F)cc2)c(OCC=C)c1 [Compound I-12, (2E)-1-[2-Methoxy-4,6-bis(2-propenyloxy)phenyl]-3-[4-(trifluoromethyl)phenyl]-2-propen-1-one] | 64.2 | 6.53 | 15.6 | 3 (≈ 7.17 µM) |  | 128 | 7.2 | 
4 | C=CCOc1cc(OC)c(C(=O)/C=C/c2ccc([N+](=O)[O-])cc2)c(OCC=C)c1 [Compound I-13, (2E)-1-[2-Methoxy-4,6-bis(2-propenyloxy)phenyl]-3-(4-nitrophenyl)-2-propen-1-one] | 68.6 | 1.62 | 4.1 | 5 (≈ 12.6 µM) | 13.2 | 8.3 | 12.6 | 
5 | C=CCOc1cc(OC)c(C(=O)/C=C/c2ccc(Cl)cc2)c(OCC=C)c1 [Compound I-14, (2E)-3-(4-Chlorophenyl)-1-[2-methoxy-4,6-bis(2-propenyloxy)phenyl]-2-propen-1-one] | 66.3 | 3.3 | 8.6 | 4 (≈ 10.4 µM) | 13 | 9.4 | 10.4 | 
6 | C=CCOc1cc(OC)c(C(=O)/C=C/c2ccccc2F)c(OCC=C)c1 [Compound I-15, (2E)-3-(2-Fluorophenyl)-1-[2-methoxy-4,6-bis(2-propenyloxy)phenyl]-2-propen-1-one] | 66.5 | 2.29 | 6.2 | 6 (≈ 16.3 µM) | 13.3 | 9.5 | 16.3 | 
7 | C=CCOc1cc(OC)c(C(=O)/C=C/c2ccccc2Br)c(OCC=C)c1 [Compound I-16] | 63.4 | 5.95 | 13.9 |  |  | 7.9 |  | IC50 [2]: 6 µg/mL (≈ 14 µM); IC50 ([3]; read-out: IC50 VERO): 13.9 µM; IC50 ([4]; Mus musculus, Peritoneal macrophage, 48 h, read-out: IC50 Macrophage): 5.4 µM
8 | C=CCOc1cc(OC)c(C(=O)/C=C/c2ccc(OC)cc2OC)c(OCC=C)c1 [Compound I-17, (2E)-3-(2,4-Dimethoxyphenyl)-1-[2-methoxy-4,6-bis(2-propenyloxy)phenyl]-2-propen-1-one] | 67.8 | 5.38 | 13.1 | 38 (≈ 92.6 µM) |  | 134 | 92.6 | 
9 | C=CCOc1cc(OC)c(C(=O)/C=C/c2cc(OC)c(OC)c(OC)c2)c(OCC=C)c1 [Compound I-20, (2E)-1-[2-Methoxy-4,6-bis(2-propenyloxy)phenyl]-3-(3,4,5-trimethoxyphenyl)-2-propen-1-one] | 76.1 | 1.5 | 3.4 | 18 (≈ 40.9 µM) | 12 | 8.2 | 40.9 | 
10 | C=CCOc1cc(OC)c(C(=O)/C=C/c2ccc(F)cc2)c(OCC=C)c1 [Compound I-23, (2E)-3-(4-Fluorophenyl)-1-[2-methoxy-4,6-bis(2-propenyloxy)phenyl]-2-propen-1-one] | 66.5 | 5.27 | 14.3 | 5 (≈ 13.6 µM) | 13.8 | 9.5 | 13.6 | 
11 | C=CCOc1cc(OC)c(C(=O)/C=C/c2ccc(C)cc2)c(OCC=C)c1 [Compound I-24, (2E)-1-[2-Methoxy-4,6-bis(2-propenyloxy)phenyl]-3-(4-methylphenyl)-2-propen-1-one] | 60.2 | 6.28 | 17.2 | 77 (≈ 211 µM) |  | 79.8 | 211 | 
12 | C=CCOc1cc(OC)c(C(=O)/C=C/c2cc(OCC=C)c(Br)c(OCC=C)c2)c(OCC=C)c1 [Compound I-25, (2E)-3-(3,5-Bis(2-propenyloxy)-4-bromophenyl)-1-[2-methoxy-4,6-bis(2-propenyloxy)phenyl]-2-propen-1-one] | 51.2 | 3.73 | 6.9 | 52 (≈ 96 µM) |  | > 180 | 96.3 | 
13 | C=CCOc1cc(OC)c(C(=O)/C=C/c2ccncc2)c(OCC=C)c1 [Compound I-26, (2E)-1-[2-Methoxy-4,6-bis(2-propenyloxy)phenyl]-3-(4-pyridinyl)-2-propen-1-one] | 73.6 | 0.52 | 1.5 | 1 (≈ 2.85 µM) |  | 0.6 | 2.8 | 
14 | C=CCOc1cc(OC)c(C(=O)/C=C/c2ccco2)c(OCC=C)c1 [Compound I-28, (2E)-3-(2-furanyl)-1-[2-methoxy-4,6-bis(2-propenyloxy)phenyl]-2-propen-1-one] | 59.1 | 4.14 | 12.2 | 65 (≈ 191 µM) |  | > 300 | 191 | 
15 | Cc1ccc(C=NNc2ncnc3sc4c(c23)CCCC4)cc1 [II-05] |  |  |  |  |  |  |  | GI50 in indicated cell line: H460 [6]: 42.9 µg/mL (≈ 133 µM); GI50 in indicated cell line: M-14 [7]: >62.5 µg/mL; GI50 in indicated cell line: DU145 [8]: >62.5 µg/mL; GI50 in indicated cell line: MCF-7 [9]: 4.2 µg/mL (≈ 13 µM); GI50 in indicated cell line: HT-29 [10]: >62.5 µg/mL; GI50 in indicated cell line: K562 [11]: 2.3 µg/mL (≈ 7.13 µM); GI50 in indicated cell line: VERO [12]: 10.0 µg/mL (≈ 31 µM); MIC MABA [13]: >100 µg/mL; Cytotoxicity VERO Lab B ([3]; Lab B): 11.0; IC50 [4]: 6.3 µM; GI50 in indicated cell line: 3T3 [14]: 12.1 µg/mL (≈ 37.5 µM); IC50 [15]: 13.7 µM
